This is an account of results in patent publication US11702419B2, “Heterocyclic compound and use thereof” (Takeda Pharmaceutical Company Limited, priority 2018, dated 2023).

T1 sequence (Q13224 27-1484, other chains not shown): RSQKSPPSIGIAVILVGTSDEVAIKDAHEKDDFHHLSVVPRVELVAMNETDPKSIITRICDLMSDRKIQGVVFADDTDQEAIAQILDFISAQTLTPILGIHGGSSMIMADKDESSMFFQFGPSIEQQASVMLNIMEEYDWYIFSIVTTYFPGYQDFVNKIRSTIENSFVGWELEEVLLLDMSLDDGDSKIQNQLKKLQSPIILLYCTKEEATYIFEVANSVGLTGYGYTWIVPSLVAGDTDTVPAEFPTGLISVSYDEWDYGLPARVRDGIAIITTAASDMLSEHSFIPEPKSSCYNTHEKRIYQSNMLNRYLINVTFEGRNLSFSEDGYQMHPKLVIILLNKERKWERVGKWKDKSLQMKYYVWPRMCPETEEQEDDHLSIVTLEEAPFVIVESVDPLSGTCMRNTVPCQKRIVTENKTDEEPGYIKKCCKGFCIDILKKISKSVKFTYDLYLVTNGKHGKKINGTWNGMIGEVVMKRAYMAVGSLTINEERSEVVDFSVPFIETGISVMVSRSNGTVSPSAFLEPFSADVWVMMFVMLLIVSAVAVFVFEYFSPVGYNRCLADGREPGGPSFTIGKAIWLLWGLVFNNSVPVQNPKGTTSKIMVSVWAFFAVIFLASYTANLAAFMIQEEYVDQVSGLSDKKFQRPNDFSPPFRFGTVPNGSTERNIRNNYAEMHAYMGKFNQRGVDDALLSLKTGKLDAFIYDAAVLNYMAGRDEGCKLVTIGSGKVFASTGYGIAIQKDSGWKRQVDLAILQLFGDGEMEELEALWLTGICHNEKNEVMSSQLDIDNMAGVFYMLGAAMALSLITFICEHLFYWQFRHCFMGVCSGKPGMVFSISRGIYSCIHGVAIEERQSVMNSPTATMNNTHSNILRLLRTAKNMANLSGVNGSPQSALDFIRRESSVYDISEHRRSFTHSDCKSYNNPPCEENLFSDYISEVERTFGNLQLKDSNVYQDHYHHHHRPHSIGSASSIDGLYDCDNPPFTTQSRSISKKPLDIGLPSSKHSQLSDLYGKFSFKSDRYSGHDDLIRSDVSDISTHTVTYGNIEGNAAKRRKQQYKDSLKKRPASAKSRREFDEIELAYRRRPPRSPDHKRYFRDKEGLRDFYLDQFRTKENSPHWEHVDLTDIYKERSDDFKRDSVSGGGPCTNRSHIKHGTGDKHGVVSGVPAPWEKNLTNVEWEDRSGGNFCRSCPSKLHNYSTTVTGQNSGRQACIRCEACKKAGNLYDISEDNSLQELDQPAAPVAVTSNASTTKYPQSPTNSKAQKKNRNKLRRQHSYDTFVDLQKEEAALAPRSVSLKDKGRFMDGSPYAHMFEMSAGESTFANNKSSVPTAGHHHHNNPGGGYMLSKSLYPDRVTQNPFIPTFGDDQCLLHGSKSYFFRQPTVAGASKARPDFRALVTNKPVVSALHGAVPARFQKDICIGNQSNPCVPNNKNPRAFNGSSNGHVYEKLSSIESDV

The experiment concerns the target T1, NMDA receptor composed of four subunits consisting of two sets of heterodimers of NR1 and NR2B (human GRIN1 and GRIN2B-expressing HEK293 cells) (Homo sapiens, UniProt Q13224).
T1 construct: host or cells: HEK293 (tetracycline-inducible expression)
The experiment is described as follows: NR2B Ca2+ influx assay. The format is cell-based. The conditions noted are these: 10 μM compound, glutamic acid/glycine-induced Ca2+ influx, FLIPR, read-out: inhibitory rate (10 μM compound concentration). As for the experimental part:
In order to confirm an “antagonistic action on an NMDA receptor containing the NR2B subunit” which the compound of the present invention has, inhibitory effect on the NMDA receptor activation was evaluated using “NMDA receptor composed of four subunits consisting of two sets of heterodimers of NR1 and NR2B”-expressing human fetal renal cells, specifically human glutamate ionotropic receptor NMDA type subunit 1 (GRIN1) and human glutamate ionotropic receptor NMDA type subunit 2B (GRIN2B)-expressing HEK293 cells.
As an index of the NMDA receptor activation, intracellular calcium ion (Ca^2+) influx caused by bonding of glycine and glutamate to NR1 and NR2B respectively was used. HEK293 cells were purchased from ChanTest. The cells were cultured in a DMEM/F-12 (COSMO BIO, 10-092-CM) medium containing 10% FBS (fetal bovine serum, AusGene), 100 units/mL penicillin, 100 μg/mL streptomycin, 500 μg/mL neomycin, 100 μg/mL Zeocin and 5 μg/mL Blasticidin at 37° C., 5% CO2. The cells were detached from flask with trypsin the day before the assay, suspended in a seeding medium (DMEM (Invitrogen, 31053) containing 10% FBS, 100 units/mL penicillin and 100 μg/mL streptomycin) at 8×10^5 cells/mL, seeded by 25 μL per well in a 384-well plate (Falcon, 356663) at 20000 cells/well, and cultured overnight in an incubator. On the day of the assay, tetracycline (Wako Pure Chemical Industries, 209-16561) was diluted with the seeding medium at 2 μg/mL, and the dilution was added at 25 μL/well to the plate seeded with the cells, and the cells were cultured for 2 hr in an incubator. Thereafter, the medium was removed, and the cells were washed with 50 μL/well of assay buffer (137 mM NaCl, 4 mM KCl, 1.8 mM CaCl2, 10 mM HEPES (pH 7.2), 10 mM Glucose, and 0.1% BSA). Then, a loading buffer (assay buffer containing 2.5 μM Fluo-4AM, 2 mM Amaranth and 1 mM Tartrazine) was added thereto at 25 μL/well, and loading was performed in the incubator for 30 min, and then at room temperature for 15 min. The test compound was diluted with the above-mentioned assay buffer so as to adjust the concentration to 30 μM, the obtained solution (25 μL) was added thereto (the final concentration 10 μM), and the cells were stood for 15 min at room temperature. Using FLIPR (Molecular Devices), 25 μL of an assay buffer containing 30 μM glutamic acid and 30 μM glycine was added thereto, and the fluorescence signal was measured every 3 seconds for 5 min. The relative activity value (inhibitory rate) was calculated when the cumulative total value of the fluorescence value of a well added with a buffer free of glutamic acid and glycine, relative to the cumulative total value of the fluorescence value of each well are regarded as 100% inhibition. The obtained value was evaluated as an inhibitory activity.
With `O=C(NCc1nnn2ncccc12)c1ccc(OC(F)(F)F)c(F)c1` [Example 18, 3-fluoro-N-([1,2,3]triazolo[1,5-b]pyridazin-3-ylmethyl)-4-(trifluoromethoxy)benzamide], the inhibition at 10 µM is 98%.
Turning to `Cc1nn2cnccc2c1CNC(=O)c1cnc(OC(F)F)c(Cl)c1` [Example 56, 5-chloro-6-(difluoromethoxy)-N-((2-methylpyrazolo[1,5-c]pyrimidin-3-yl)methyl)nicotinamide], the inhibition at 10 µM came out at 85%.
In the case of `O=C(NCc1cnn2ncccc12)c1ccc(OC(F)F)c(Cl)c1` [Example 7, 3-chloro-4-(difluoromethoxy)-N-(pyrazolo[1,5-b]pyridazin-3-ylmethyl)benzamide] it was 98%; in that of `COc1ncc(C(=O)NCc2cnn3ncccc23)cc1F` [Example 4, 5-fluoro-6-methoxy-N-(pyrazolo[1,5-b]pyridazin-3-ylmethyl)nicotinamide], 85%.
The same measure for `CCc1nn2ncccc2c1CNC(=O)c1cnc(OC(F)F)c(F)c1` [Example 26, 6-(difluoromethoxy)-N-((2-ethylpyrazolo[1,5-b]pyridazin-3-yl)methyl)-5-fluoronicotinamide]: 90%; for `Cn1ccn2ncc(CNC(=O)c3ccc(Cl)c(F)c3)c12` [Example 63, 4-chloro-3-fluoro-N-((1-methyl-1H-imidazo[1,2-b]pyrazol-7-yl)methyl)benzamide]: 96%; for `Cc1cnn2ncc(CNC(=O)c3cnc(OC(F)F)c(F)c3)c2c1` [Example 39, 6-(difluoromethoxy)-5-fluoro-N-((5-methylpyrazolo[1,5-b]pyridazin-3-yl)methyl)nicotinamide]: 97%.
The same measure for `Cc1ccnn2ncc(CNC(=O)c3cnc(OC(F)F)c(F)c3)c12` [Example 37, 6-(difluoromethoxy)-5-fluoro-N-((4-methylpyrazolo[1,5-b]pyridazin-3-yl)methyl)nicotinamide]: 96%; for `Cn1ccn2ncc(CNC(=O)c3ccc(OC(F)(F)F)c(F)c3)c12` [Example 57, 3-fluoro-N-((1-methyl-1H-imidazo[1,2-b]pyrazol-7-yl)methyl)-4-(trifluoromethoxy)benzamide]: 97%.
Take `O=C(NCc1nnn2ncccc12)c1ccc(OC(F)F)c(F)c1` [Example 33, 4-(difluoromethoxy)-3-fluoro-N-([1,2,3]triazolo[1,5-b]pyridazin-3-ylmethyl)benzamide]: the inhibition at 10 µM was 97%.
The same measure for `O=C(NCc1nnn2ncccc12)c1ccc(OC(F)(F)F)c(Cl)c1` [Example 40, 3-chloro-N-([1,2,3]triazolo[1,5-b]pyridazin-3-ylmethyl)-4-(trifluoromethoxy)benzamide]: 98%.
Take `Cn1ccn2ncc(CNC(=O)c3ccc(OC4CC4)cc3)c12` [Example 60, 4-(cyclopropyloxy)-N-((1-methyl-1H-imidazo[1,2-b]pyrazol-7-yl)methyl)benzamide]: the inhibition at 10 µM turned out to be 88%.
In the case of `Cn1ccn2ncc(CNC(=O)c3ccc(OC(F)(F)F)nc3)c12` [Example 64, N-((1-methyl-1H-imidazo[1,2-b]pyrazol-7-yl)methyl)-6-(trifluoromethoxy)nicotinamide] it was 96%; in that of `Cn1ccn2ncc(CNC(=O)c3ccc(C(F)(F)F)c(F)c3)c12` [Example 67, 3-fluoro-N-((1-methyl-1H-imidazo[1,2-b]pyrazol-7-yl)methyl)-4-(trifluoromethyl)benzamide], 98%; in that of `O=C(NCc1cnn2ccn(CC(F)F)c12)c1cnc(OC(F)F)c(F)c1` [Example 79, N-{[1-(2,2-difluoroethyl)-1H-imidazo[1,2-b]pyrazol-7-yl]methyl}-6-(difluoromethoxy)-5-fluoropyridine-3-carboxamide], 87%.
The same measure for `Cc1cnn2ncc(CNC(=O)c3ccc(OC(F)F)c(F)c3)c2c1` [Example 38, 4-(difluoromethoxy)-3-fluoro-N-((5-methylpyrazolo[1,5-b]pyridazin-3-yl)methyl)benzamide]: 98%.
